Test results reported in patent US9278941B2, “Azole derivative and uses thereof” (Kureha Corporation, priority 2011, dated 2016).
Like-named read-outs stand apart in the source and are kept apart here.

Key:
powdery mildew = assay: Powdery mildew control effect on wheat, foliar spray treatment; format: in vivo; conditions: wettable powder foliar spray 1,000 L/ha, seven days after inoculation
Rhizopus oryzae = assay: Antifungal test for pathogens (PDA plate), R.o; format: cell-based; conditions: PDA plate medium
[1] = system: Pseudocercoporella herpotrichoides; assay: Antifungal test for pathogens (PDA plate), P.h; format: cell-based; conditions: PDA plate medium
Microdochium nivale = assay: Antifungal test for pathogens (PDA plate), M.n; format: cell-based; conditions: PDA plate medium
Glomerella cingurata = assay: Antifungal test for pathogens (PDA plate), G.c; format: cell-based; conditions: PDA plate medium
wheat leaf rust = assay: Rust control effect on wheat, foliar spray treatment; format: in vivo; conditions: wettable powder foliar spray 1,000 L/ha, twelve days after inoculation
Sclerotinia sclerotiorum = assay: Antifungal test for pathogens (PDA plate), S.s; format: cell-based; conditions: PDA plate medium
Penicillium italicum = assay: Antifungal test for pathogens (PDA plate), P.i; format: cell-based; conditions: PDA plate medium
Gibberella fujikuroi = assay: Antifungal test for pathogens (PDA plate), G.f; format: cell-based; conditions: PDA plate medium
wheat = assay: Phytotoxicity evaluation of growth inhibition of wheat seeds, seed treatment; format: in vivo; conditions: fifteen days after seeding, untreated 21 cm
Protocol: A pot test was used to perform a phytotoxicity evaluation of growth inhibition using a seed treatment. Compound (1(−)) or Compound (1(+)) was dissolved in DMSO so the treatment amount was 2 or 20 g ai/100 kg seeds, and the solution was smeared on wheat seeds in a vial, and eight wheat seeds were seeded in a 80 cm^2 pot. These were irrigated from below in a greenhouse. Fifteen days after seeding, the length of the wheat was evaluated.

Fusarium graminearum = format: cell-based; conditions: PDA plate medium
Pyrenophora graminea = assay: Antifungal test for pathogens (PDA plate), P.g; format: cell-based; conditions: PDA plate medium
Alternaria alternata = assay: Antifungal test for pathogens (PDA plate), A.m; format: cell-based; conditions: PDA plate medium
Cercospora beticola = assay: Antifungal test for pathogens (PDA plate), C.b; format: cell-based; conditions: PDA plate medium
Ustilago nuda = assay: Antifungal test for pathogens (PDA plate), U.n; format: cell-based; conditions: PDA plate medium
Fusarium oxysporum = assay: Antifungal test for pathogens (PDA plate), F.c; format: cell-based; conditions: PDA plate medium
[2] = system: Wheat leaf blight (Septoria tritici); assay: Antifungal test against wheat leaf blight (PDA plate); conditions: 19 days at 25° C.
Protocol: Wheat leaf blight (Septoria tritici) cultured beforehand in a medium plate was punched out with a 4 mm-diameter cork borer, and inoculated in the plate media containing the agent. After inoculation, they were cultured for 19 days at 25° C., and the growth of the fungus was determined by the diameter of the growth. The growth rate of the fungus in the plate media containing the agent was compared to the growth rate of the fungus in the plate medium not containing the agent, and the filamentous fungi inhibition rate was determined using the following equation. In the equation, R is the filamentous fungi inhibition rate (%), dc is the diameter of the fungal growth in the untreated plate media, and dt is the diameter of the fungal growth in the treated plate media. R=100(dc−dt)/dc

Pyricularia oryzae = format: cell-based; conditions: PDA plate medium
Phaeosphaeria nodorum = assay: Antifungal test for pathogens (PDA plate), P.n; format: cell-based; conditions: PDA plate medium
Gaeumannomyces graminis = assay: Antifungal test for pathogens (PDA plate), G.g; format: cell-based; conditions: PDA plate medium
Botrytis cinerea [3] = assay: Antifungal test for pathogens (PDA plate), B.c; format: cell-based; conditions: PDA plate medium
Rhynchosporium secalis = assay: Antifungal test for pathogens (PDA plate), R.sec; format: cell-based; conditions: PDA plate medium
Botrytis cinerea [4] = assay: Gray mold disease control effect on cucumbers, foliar spray treatment; format: in vivo; conditions: cucumber gray mold, wettable powder foliar spray 1,000 L/ha, four days after inoculation
Rhizoctonia solani = assay: Antifungal test for pathogens (PDA plate), R.s; format: cell-based; conditions: PDA plate medium
wheat brown rust = assay: Brown rust control effect on wheat, seed treatment; format: in vivo; conditions: sixteen days after inoculation
Protocol: A pot test was performed to evaluate the brown rust controlling effect on wheat using seed treatment. Compound (1(−)) or Compound (1(+)) was dissolved in DMSO so the treatment amount was 20 g ai/100 kg seeds or 2 g ai/100 kg seeds, and the solution was smeared on wheat seeds in a vial, and eight wheat seeds were seeded in a 80 cm^2 pot. These were irrigated from below in a greenhouse. Fifteen days after seeding, the seedlings were inoculated with wheat brown rust and then kept for two days in a box. These were again irrigated from below in a greenhouse.

wheat leaf blight = assay: Leaf blotch control effect on wheat, foliar spray treatment; conditions: wettable powder foliar spray 1,000 L/ha, thirty days after inoculation
Protocol: After blow drying the sprayed leaves, the plants were sprinkled and inoculated with wheat leaf blight. Thirty days after inoculation, the morbidity of the wheat to powdery mildew was evaluated according to the criteria shown in Table 3, and the preventative value was calculated using the following equation. When the average morbidity of the sprayed plot was higher than the average morbidity of the unsprayed plot, the preventative value was 0%. Preventative value (%)=(1−(average morbidity of the sprayed plot/average morbidity of the unsprayed plot))×100.

COC(=O)[C@]1(C)CC[C@H](Cc2ccc(Cl)cc2)[C@@]1(O)Cn1cncn1 (relative stereo) [Compound (1(−)), (1,2-cis, 1,3-cis)-3-(4-chlorobenzyl)-2-hydroxy-1-methyl-2-(1H-1,2,4-triazole-1-ylmethyl)cyclopentanecarboxylic acid methyl ester]
Preventative Value (%) (powdery mildew; sample conc. 12.5 mg/L): 96%
Preventative Value (%) (powdery mildew; sample conc. 50.0 mg/L): 98%
Antifungal Index of Each Strain R.o (Rhizopus oryzae; Sample Conc. 1.25 mg/L): 5 (>90%)
Antifungal Index of Each Strain R.o (Rhizopus oryzae; Sample Conc. 2.5 mg/L): 5 (>90%)
Antifungal Index of Each Strain R.o (Rhizopus oryzae; Sample Conc. 5 mg/L): 5 (>90%)
Antifungal Index of Each Strain P.h ([1]; Sample Conc. 1.25 mg/L): 5 (>90%)
Antifungal Index of Each Strain P.h ([1]; Sample Conc. 2.5 mg/L): 5 (>90%)
Antifungal Index of Each Strain P.h ([1]; Sample Conc. 5 mg/L): 5 (>90%)
Antifungal Index of Each Strain M.n (Microdochium nivale; Sample Conc. 1.25 mg/L): 3 (80%-70%)
Antifungal Index of Each Strain M.n (Microdochium nivale; Sample Conc. 2.5 mg/L): 5 (>90%)
Antifungal Index of Each Strain M.n (Microdochium nivale; Sample Conc. 5 mg/L): 5 (>90%)
Antifungal Index of Each Strain G.c (Glomerella cingurata; Sample Conc. 1.25 mg/L): 5 (>90%)
Antifungal Index of Each Strain G.c (Glomerella cingurata; Sample Conc. 2.5 mg/L): 5 (>90%)
Antifungal Index of Each Strain G.c (Glomerella cingurata; Sample Conc. 5 mg/L): 5 (>90%)
Preventative Value (%) (wheat leaf rust; sample conc. 0.8 mg/L): 83.5%
Preventative Value (%) (wheat leaf rust; sample conc. 3.1 mg/L): 92.9%
Antifungal Index of Each Strain S.s (Sclerotinia sclerotiorum; Sample Conc. 1.25 mg/L): 5 (>90%)
Antifungal Index of Each Strain S.s (Sclerotinia sclerotiorum; Sample Conc. 2.5 mg/L): 5 (>90%)
Antifungal Index of Each Strain S.s (Sclerotinia sclerotiorum; Sample Conc. 5 mg/L): 5 (>90%)
Antifungal Index of Each Strain P.i (Penicillium italicum; Sample Conc. 0.08 mg/L): 1 (<60%)
Antifungal Index of Each Strain P.i (Penicillium italicum; Sample Conc. 0.16 mg/L): 1 (<60%)
Antifungal Index of Each Strain P.i (Penicillium italicum; Sample Conc. 0.31 mg/L): 3 (80%-70%)
Antifungal Index of Each Strain P.i (Penicillium italicum; Sample Conc. 0.63 mg/L): 5 (>90%)
Antifungal Index of Each Strain G.f (Gibberella fujikuroi; Sample Conc. 1.25 mg/L): 5 (>90%)
Antifungal Index of Each Strain G.f (Gibberella fujikuroi; Sample Conc. 2.5 mg/L): 5 (>90%)
Antifungal Index of Each Strain G.f (Gibberella fujikuroi; Sample Conc. 5 mg/L): 5 (>90%)
Average Plant Length (cm) (wheat; wheat seed treatment 2 g ai/100 kg seeds): 11 cm
Average Plant Length (cm) (wheat; wheat seed treatment 20 g ai/100 kg seeds): 6 cm
Antifungal Index of Each Strain F.g (Fusarium graminearum; Sample Conc. 1.25 mg/L): 5 (>90%)
Antifungal Index of Each Strain F.g (Fusarium graminearum; Sample Conc. 2.5 mg/L): 5 (>90%)
Antifungal Index of Each Strain F.g (Fusarium graminearum; Sample Conc. 5 mg/L): 5 (>90%)
Antifungal Index of Each Strain P.g (Pyrenophora graminea; Sample Conc. 0.08 mg/L): 2 (70%-60%)
Antifungal Index of Each Strain P.g (Pyrenophora graminea; Sample Conc. 0.16 mg/L): 3 (80%-70%)
Antifungal Index of Each Strain P.g (Pyrenophora graminea; Sample Conc. 0.31 mg/L): 4 (90%-80%)
Antifungal Index of Each Strain P.g (Pyrenophora graminea; Sample Conc. 0.63 mg/L): 5 (>90%)
Antifungal Index of Each Strain A.m (Alternaria alternata; Sample Conc. 1.25 mg/L): 3 (80%-70%)
Antifungal Index of Each Strain A.m (Alternaria alternata; Sample Conc. 2.5 mg/L): 4 (90%-80%)
Antifungal Index of Each Strain A.m (Alternaria alternata; Sample Conc. 5 mg/L): 5 (>90%)
Antifungal Index of Each Strain C.b (Cercospora beticola; Sample Conc. 0.08 mg/L): 5 (>90%)
Antifungal Index of Each Strain C.b (Cercospora beticola; Sample Conc. 0.16 mg/L): 5 (>90%)
Antifungal Index of Each Strain C.b (Cercospora beticola; Sample Conc. 0.31 mg/L): 5 (>90%)
Antifungal Index of Each Strain C.b (Cercospora beticola; Sample Conc. 0.63 mg/L): 5 (>90%)
Antifungal Index of Each Strain U.n (Ustilago nuda; Sample Conc. 1.25 mg/L): 5 (>90%)
Antifungal Index of Each Strain U.n (Ustilago nuda; Sample Conc. 2.5 mg/L): 5 (>90%)
Antifungal Index of Each Strain U.n (Ustilago nuda; Sample Conc. 5 mg/L): 5 (>90%)
Antifungal Index of Each Strain F.c (Fusarium oxysporum; Sample Conc. 1.25 mg/L): 5 (>90%)
Antifungal Index of Each Strain F.c (Fusarium oxysporum; Sample Conc. 2.5 mg/L): 5 (>90%)
Antifungal Index of Each Strain F.c (Fusarium oxysporum; Sample Conc. 5 mg/L): 5 (>90%)
Antifungal Index ([2]; sample conc. 0.31 mg/L): 1 (<60%)
Antifungal Index ([2]; sample conc. 0.63 mg/L): 2 (70%-60%)
Antifungal Index ([2]; sample conc. 1.25 mg/L): 4 (90%-80%)
Antifungal Index of Each Strain P.o (Pyricularia oryzae; Sample Conc. 1.25 mg/L): 4 (90%-80%)
Antifungal Index of Each Strain P.o (Pyricularia oryzae; Sample Conc. 2.5 mg/L): 5 (>90%)
Antifungal Index of Each Strain P.o (Pyricularia oryzae; Sample Conc. 5 mg/L): 5 (>90%)
Antifungal Index of Each Strain P.n (Phaeosphaeria nodorum; Sample Conc. 1.25 mg/L): 5 (>90%)
Antifungal Index of Each Strain P.n (Phaeosphaeria nodorum; Sample Conc. 2.5 mg/L): 5 (>90%)
Antifungal Index of Each Strain P.n (Phaeosphaeria nodorum; Sample Conc. 5 mg/L): 5 (>90%)
Antifungal Index of Each Strain G.g (Gaeumannomyces graminis; Sample Conc. 1.25 mg/L): 5 (>90%)
Antifungal Index of Each Strain G.g (Gaeumannomyces graminis; Sample Conc. 2.5 mg/L): 5 (>90%)
Antifungal Index of Each Strain G.g (Gaeumannomyces graminis; Sample Conc. 5 mg/L): 5 (>90%)
Antifungal Index of Each Strain B.c (Botrytis cinerea [3]; Sample Conc. 1.25 mg/L): 5 (>90%)
Antifungal Index of Each Strain B.c (Botrytis cinerea [3]; Sample Conc. 2.5 mg/L): 5 (>90%)
Antifungal Index of Each Strain B.c (Botrytis cinerea [3]; Sample Conc. 5 mg/L): 5 (>90%)
Antifungal Index of Each Strain R.sec (Rhynchosporium secalis; Sample Conc. 0.08 mg/L): 5 (>90%)
Antifungal Index of Each Strain R.sec (Rhynchosporium secalis; Sample Conc. 0.16 mg/L): 5 (>90%)
Antifungal Index of Each Strain R.sec (Rhynchosporium secalis; Sample Conc. 0.31 mg/L): 5 (>90%)
Antifungal Index of Each Strain R.sec (Rhynchosporium secalis; Sample Conc. 0.63 mg/L): 5 (>90%)
Preventative Value (%) (Botrytis cinerea [4]; sample conc. 12.5 mg/L): 64.7%
Preventative Value (%) (Botrytis cinerea [4]; sample conc. 50.0 mg/L): 100%
Antifungal Index of Each Strain R.s (Rhizoctonia solani; Sample Conc. 1.25 mg/L): 5 (>90%)
Antifungal Index of Each Strain R.s (Rhizoctonia solani; Sample Conc. 2.5 mg/L): 5 (>90%)
Antifungal Index of Each Strain R.s (Rhizoctonia solani; Sample Conc. 5 mg/L): 5 (>90%)
Preventative Value (%) (wheat brown rust; seed treatment 2 g ai/100 kg seeds): 70%
Preventative Value (%) (wheat brown rust; seed treatment 20 g ai/100 kg seeds): 100%
Preventative Value (%) (wheat leaf blight; sample conc. 12.5 mg/L): 37.5%
Preventative Value (%) (wheat leaf blight; sample conc. 50 mg/L): 65%

CC1(C)CCC(Cc2ccc(Cl)cc2)C1(O)Cn1cncn1 (centres unmarked) [Metconazole, reference compound]
Preventative Value (%) (wheat leaf rust; sample conc. 0.8 mg/L): 34.1%
Preventative Value (%) (wheat leaf rust; sample conc. 3.1 mg/L): 81.1%
Antifungal Index ([2]; sample conc. 0.31 mg/L): 1 (<60%)
Antifungal Index ([2]; sample conc. 0.63 mg/L): 2 (70%-60%)
Antifungal Index ([2]; sample conc. 1.25 mg/L): 4 (90%-80%)
Preventative Value (%) (wheat leaf blight; sample conc. 12.5 mg/L): 0%
Preventative Value (%) (wheat leaf blight; sample conc. 50 mg/L): 62.5%
